For series [1] the following is noted: aqueous solution; stated as known; cited from earlier work.
Series [2] is described as follows: Stability of PVP-I solutions, USP method. It counts as physicochemical. As to conditions: aprotic DMSO solvent system, long periods of time. An excerpt: It is known that PVP-I aqueous solutions are difficult to stabilize at low concentrations over a long time. At concentrations less than about 0.7% PVP-I (w/w, aqueous), PVP-I aqueous solutions rapidly decay to yield complex mixtures of iodinated and iodine-free constituents. […] It is of additional novelty that even in the hydrated DMSO solutions prepared from aqueous PVP-I, increased stability is observed for the PVP-I component.

For series [3] the following is noted: stated as known drawback of PVP-I; cited from earlier work.

In the case of povidone-iodine [PVP-I], the “PVP-I concentration below which aqueous solutions rapidly decay” value in series [1] was “less than 0.7 % (w/w, aqueous)”. The “lowest PVP-I concentration prepared and maintained as stable composition” value in series [2] was 0.1%. Moreover, the “PVP-I concentration above which toxic to the sinuses” value in series [3] is on record as “above 2.2 % w/w”.

Values taken from patent US20210322382A1, “METHODS AND COMPOSITIONS FOR IMPROVED TREATMENT OF SINUS DISEASE” (Veloce BioPharma LLC, priority 2020, published 2021).
